Non-standard residues stand in square brackets, D forms with d. Residues, ends and D or L forms follow the SMILES beside them.
Molecular target: GPR54 (Homo sapiens, UniProt Q969F8)
Assay: Inositol phosphate (IP) antagonism assay: inhibition of 10 nM kisspeptin-10 stimulation of IP in CHO/gpr-54 cells
Assay type: cell-based
Parameters: G. Vassart, Univ; Brussels
Conditions: CHO cells, 10 nM kisspeptin-10; for IC50: unit inferred, given in M
Procedure: Inositol-3-phoshate Antagonistic Assay—Cell monolayers had 0.5 mls HEPES modified DMEM supplemented with […] for 30 mins at 37° C. to block IP3 breakdown. Cells were then stimulated with 0.25 mls 10 nM Kisspeptin-10 plus 0.25 mls of 10 nM Kisspeptin-10 or analogues (10 pM-10 uM) diluted at 1:1000 in the above media for 1 hr at 37° C., then in 10 mM Formic acid at 4° C. for 1 hr to lyse cells. Lysate was then transferred to plastic tubes containing 0.5 mls Dowex resin to bind the radioactive IP3 and the resin was then washed with 1 ml H2O. The resin was then washed with 60 mM NH4 formate/5 mM Sodium tetraborate followed by 1M NH4 formate/0.1M Formic acid to release the bound radiation. Then 800 μls of the radioactive solution were transferred to scintillation vials containing 2.5 mls scintillation fluid and radioactivity counted on a Beta counter for 60 seconds.
Chinese hamster ovary (CHO) cells stably-expressing the human gpr-54 receptor (CHO/gpr-54) were obtained from Prof. G. Vassart, Univ. Brussels. The cells were maintained in Dulbecco's modified Eagle's medium (DMEM; Sigma) supplemented with 10% fetal calf serum, 2% glutamine and 1% penicillin (10,000 units/ml)/streptomycin ([…]) at 37° C. in a humidified 5% CO2 atmosphere.
Experiments were repeated 3-5 times. IP production was plotted as mean values±SEM and analyzed using a Student's t-Test ([…]).

Chain of GPR54 (Q969F8 whole entry): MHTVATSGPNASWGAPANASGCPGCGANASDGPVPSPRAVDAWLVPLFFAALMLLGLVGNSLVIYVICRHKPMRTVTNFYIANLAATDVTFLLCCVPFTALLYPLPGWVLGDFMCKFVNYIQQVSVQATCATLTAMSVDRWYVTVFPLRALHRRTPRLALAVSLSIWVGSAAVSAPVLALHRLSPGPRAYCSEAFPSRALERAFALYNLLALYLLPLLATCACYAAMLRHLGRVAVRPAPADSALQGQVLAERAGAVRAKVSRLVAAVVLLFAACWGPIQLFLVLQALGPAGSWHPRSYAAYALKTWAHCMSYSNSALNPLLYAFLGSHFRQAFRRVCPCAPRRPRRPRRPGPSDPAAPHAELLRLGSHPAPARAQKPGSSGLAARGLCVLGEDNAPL

SMILES | Inhibition of IP stimulation by 10 nM Agonist: % Inhibition of Max [%] | IC50 [nM]
CC(C)C[C@H](NC(=O)CNC(=O)[C@H](Cc1ccccc1)NC(=O)[C@H](CO)NC(=O)[C@H](CC(N)=O)NC(=O)[C@H](Cc1c[nH]c2ccccc12)NC(=O)[C@H](CC(N)=O)NC(=O)[C@@H](N)Cc1ccc(O)cc1)C(=O)N[C@@H](CCCNC(=N)N)C(=O)N[C@@H](Cc1c[nH]c2ccccc12)C(N)=O [Peptide 187] (H-YNWNSFGLRW-NH2) | 36 | 
CC(=O)N[C@@H](Cc1ccccc1)C(=O)NCC(=O)N[C@H](Cc1ccccc1)C(=O)N[C@@H](CCCNC(=N)N)C(=O)N[C@@H](Cc1c[nH]c2ccccc12)C(N)=O [Peptide 190] (Ac-FG[dF]RW-NH2) | 71 | 10
CC(=O)N[C@@H](CC(N)=O)C(=O)N[C@@H](CO)C(=O)N[C@@H](Cc1ccccc1)C(=O)NCC(=O)N[C@@H](CC(C)C)C(=O)N[C@@H](CCCNC(=N)N)C(=O)N[C@@H](Cc1ccccc1)C(N)=O [Peptide 186] (Ac-NSFGLRF-NH2) | 70 | 
CC(C)C[C@H](NC(=O)CNC(=O)[C@@H](Cc1c[nH]c2ccccc12)NC(=O)CNC(=O)[C@H](CC(N)=O)NC(=O)[C@H](Cc1c[nH]c2ccccc12)NC(=O)[C@H](CC(N)=O)NC(=O)[C@@H](N)Cc1ccc(O)cc1)C(=O)N[C@@H](CCCNC(=N)N)C(=O)N[C@@H](Cc1ccccc1)C(N)=O [Peptide 212] (H-YNWNG[dW]GLRF-NH2) | 68 | < 0.1
CC(=O)N[C@@H](Cc1ccccc1)C(=O)NCC(=O)N[C@H](Cc1c[nH]c2ccccc12)C(=O)N[C@@H](CCCNC(=N)N)C(=O)N[C@@H](Cc1ccccc1)C(N)=O [Peptide 206] (Ac-FG[dW]RF-NH2) | 68 | 10
CC(=O)N[C@@H](Cc1ccccc1)C(=O)NCC(=O)N[C@@H](CC(C)C)C(=O)N[C@H](CCCNC(=N)N)C(=O)N[C@@H](Cc1c[nH]c2ccccc12)C(N)=O [Peptide 200] | 63 | 300
CC(=O)N[C@@H](C)C(=O)NCC(=O)N[C@@H](CC(C)C)C(=O)N[C@@H](CCCNC(=N)N)C(=O)N[C@@H](Cc1c[nH]c2ccccc12)C(N)=O [Peptide 202] (Ac-AGLRW-NH2) | 64 | 10
CC(=O)N[C@@H](Cc1ccccc1)C(=O)NCC(=O)N[C@H](CC(C)C)C(=O)N[C@@H](CCCNC(=N)N)C(=O)N[C@@H](Cc1c[nH]c2ccccc12)C(N)=O [Peptide 191] | 79 | 
CC(=O)N[C@@H](Cc1ccccc1)C(=O)NCC(=O)N[C@@H](C)C(=O)N[C@@H](CCCNC(=N)N)C(=O)N[C@@H](Cc1c[nH]c2ccccc12)C(N)=O [Peptide 201] (Ac-FGARW-NH2) | 69 | 7
CC(=O)N[C@H](Cc1ccccc1)C(=O)N[C@@H](Cc1c[nH]c2ccccc12)C(=O)N[C@@H](CC(C)C)C(=O)N[C@@H](CCCNC(=N)N)C(=O)N[C@@H](Cc1c[nH]c2ccccc12)C(N)=O [Peptide 203] (Ac-[dF]WLRW-NH2) | 71 | 0.1
N=C(N)NCCC[C@H](NC(=O)[C@@H](Cc1c[nH]c2ccccc12)NC(=O)CNC(=O)[C@H](Cc1ccccc1)NC(=O)CNC(=O)[C@H](CC(N)=O)NC(=O)[C@H](Cc1c[nH]c2ccccc12)NC(=O)[C@H](CC(N)=O)NC(=O)[C@@H](N)Cc1ccc(O)cc1)C(=O)N[C@@H](Cc1ccccc1)C(N)=O [Peptide 210] (H-YNWNGFG[dW]RF-NH2) | 64 | < 0.1
CC(C)C[C@@H](NC(=O)CNC(=O)[C@H](Cc1ccccc1)NC(=O)CNC(=O)[C@H](CC(N)=O)NC(=O)[C@H](Cc1c[nH]c2ccccc12)NC(=O)[C@H](CC(N)=O)NC(=O)[C@@H](N)Cc1ccc(O)cc1)C(=O)N[C@@H](CCCNC(=N)N)C(=O)N[C@@H](Cc1ccccc1)C(N)=O [Peptide 209] (H-YNWNGFG[dL]RF-NH2) | 61 | 100

Second part, the compound after the results:

Inhibition of IP stimulation by 10 nM Agonist: % Inhibition of Max [%] | IC50 [nM] | SMILES
55 | 10 | CC(=O)N[C@H](Cc1c[nH]c2ccccc12)C(=O)N[C@@H](CC(N)=O)C(=O)N[C@@H](Cc1c[nH]c2ccccc12)C(=O)N[C@@H](CC(N)=O)C(=O)NCC(=O)N[C@@H](Cc1ccccc1)C(=O)NCC(=O)N[C@H](Cc1c[nH]c2ccccc12)C(=O)N[C@@H](CCCNC(=N)N)C(=O)N[C@@H](Cc1ccccc1)C(N)=O [Peptide 243] (Ac-[dW]NWNGFG[dW]RF-NH2)
80 |  | CC(=O)N[C@H](C)C(=O)N[C@@H](CC(N)=O)C(=O)N[C@@H](Cc1c[nH]c2ccccc12)C(=O)N[C@@H](CC(N)=O)C(=O)N[C@@H](CO)C(=O)N[C@@H](Cc1ccccc1)C(=O)NCC(=O)N[C@H](Cc1c[nH]c2ccccc12)C(=O)N[C@@H](CCCNC(=N)N)C(=O)N[C@@H](Cc1ccccc1)C(N)=O [Peptide 247] (Ac-[dA]NWNSFG[dW]RF-NH2)
66 |  | CC(=O)N[C@H](Cc1ccc(O)cc1)C(=O)N[C@@H](CC(N)=O)C(=O)N[C@@H](Cc1c[nH]c2ccccc12)C(=O)N[C@@H](CC(N)=O)C(=O)NCC(=O)N[C@H](Cc1c[nH]c2ccccc12)C(=O)NCC(=O)N[C@H](Cc1c[nH]c2ccccc12)C(=O)N[C@@H](CCCNC(=N)N)C(=O)N[C@@H](Cc1ccccc1)C(N)=O [Peptide 245] (Ac-[dY]NWNG[dW]G[dW]RF-NH2)
44 | > 100 | CC(=O)N[C@H](C)C(=O)N[C@@H](CC(N)=O)C(=O)N[C@@H](Cc1c[nH]c2ccccc12)C(=O)N[C@@H](CC(N)=O)C(=O)N1CCC[C@@H]1C(=O)N[C@@H](Cc1ccccc1)C(=O)NCC(=O)N[C@H](Cc1c[nH]c2ccccc12)C(=O)N[C@@H](CCCNC(=N)N)C(=O)N[C@@H](Cc1ccccc1)C(N)=O [Peptide 275] (Ac-[dA]NWN[dP]FG[dW]RF-NH2)
57 |  | CC(=O)N[C@H](C)C(=O)N[C@@H](CC(N)=O)C(=O)N[C@@H](Cc1c[nH]c2ccccc12)C(=O)N[C@@H](CC(N)=O)C(=O)N[C@H](C)C(=O)N[C@@H](Cc1ccccc1)C(=O)NCC(=O)N[C@@H](CC(C)C)C(=O)N[C@@H](CCCNC(=N)N)C(=O)N[C@@H](Cc1ccccc1)C(N)=O [Peptide 277] (Ac-[dA]NWN[dA]FGLRF-NH2)
0 |  | CC(=O)N[C@H](Cc1ccc(O)cc1)C(=O)N[C@@H](CC(N)=O)C(=O)N[C@@H](Cc1c[nH]c2ccccc12)C(=O)N[C@@H](CC(N)=O)C(=O)NCC(=O)N[C@@H](Cc1ccccc1)C(=O)NCC(=O)N[C@@H](Cc1c[nH]c2ccccc12)C(=O)N[C@@H](CCCNC(=N)N)C(=O)N[C@@H](Cc1ccccc1)C(N)=O [Peptide 237] (Ac-[dY]NWNGFGWRF-NH2)
58 | 50 | CC(=O)N[C@@H](Cc1ccc(O)cc1)C(=O)N[C@@H](CC(N)=O)C(=O)N[C@@H](Cc1c[nH]c2ccccc12)C(=O)N[C@@H](CC(N)=O)C(=O)NCC(=O)N[C@@H](Cc1ccccc1)C(=O)NCC(=O)N[C@H](Cc1c[nH]c2ccccc12)C(=O)N[C@@H](CCCNC(=N)N)C(=O)N[C@@H](Cc1ccccc1)C(N)=O [Peptide 228] (Ac-YNWNGFG[dW]RF-NH2)
68 | 8000 | CC(=O)N[C@@H](Cc1ccc(O)cc1)C(=O)N[C@@H](CC(N)=O)C(=O)N[C@@H](Cc1c[nH]c2ccccc12)C(=O)N[C@@H](CC(N)=O)C(=O)N[C@H](Cc1c[nH]c2ccccc12)C(=O)N[C@@H](Cc1ccccc1)C(=O)NCC(=O)N[C@H](Cc1c[nH]c2ccccc12)C(=O)N[C@@H](CCCNC(=N)N)C(=O)N[C@@H](Cc1ccccc1)C(N)=O [Peptide 229] (Ac-YNWN[dW]FG[dW]RF-NH2)
47 | > 200 | CC(=O)N[C@H](C)C(=O)N[C@@H](CC(N)=O)C(=O)N[C@@H](Cc1c[nH]c2ccccc12)C(=O)N[C@@H](CC(N)=O)C(=O)NCC(=O)N[C@@H](Cc1ccccc1)C(=O)NCC(=O)N[C@@H](CC(C)C)C(=O)N[C@H](CCCNC(=N)N)C(=O)N[C@@H](Cc1ccccc1)C(N)=O [Peptide 278] (Ac-[dA]NWNGFGL[dR]F-NH2)
64 |  | CC(=O)N[C@H](C)C(=O)N[C@@H](CC(N)=O)C(=O)N[C@@H](Cc1c[nH]c2ccccc12)C(=O)N[C@@H](CC(N)=O)C(=O)NCC(=O)N[C@@H](Cc1ccccc1)C(=O)NCC(=O)N[C@@H](Cc1c[nH]c2ccccc12)C(=O)N[C@@H](CCCNC(=N)N)C(=O)N[C@@H](Cc1ccccc1)C(N)=O [Peptide 248] (Ac-[dA]NWNGFGWRF-NH2)
60 | 10 | CC(=O)N[C@H](Cc1ccccc1)C(=O)N[C@@H](CC(N)=O)C(=O)N[C@@H](Cc1c[nH]c2ccccc12)C(=O)N[C@@H](CC(N)=O)C(=O)NCC(=O)N[C@@H](Cc1ccccc1)C(=O)NCC(=O)N[C@H](Cc1c[nH]c2ccccc12)C(=O)N[C@@H](CCCNC(=N)N)C(=O)N[C@@H](Cc1ccccc1)C(N)=O [Peptide 244] (Ac-[dF]NWNGFG[dW]RF-NH2)

Reference: patent US8916681B2, “Compound, use and method” (Medical Research Council, priority 2007, dated 2014)
